Legend:
yellow nutsedge = test: Test C postemergence; assay type: in vivo, Cyperus esculentus; details: for Plant response rating (0 to 100), Nutsedge, Yellow: 16 g ai/ha, 0 is no effect, 100 is complete control; for Nutsedge, Yellow plant response rating: 31 g ai/ha; for Nutsedge, Yellow plant response rating / Plant response rating, Nutsedge, Yellow: scale 0 to 100 (0 no effect, 100 complete control)
Outline: (§1)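 Whole-plant greenhouse test with surfactant-containing solvent formulation, applied preemergence to sown loam–sand pots or postemergence to 2–18 cm plants. Scored by eye 13 to 15 days on, 0–100 scale.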

oilseed rape = test: Test C postemergence; assay type: in vivo, Brassica napus; details: for Plant response rating (0 to 100), Oilseed Rape: 16 g ai/ha, 0 is no effect, 100 is complete control; for Oilseed Rape plant response rating: 31 g ai/ha; for Oilseed Rape plant response rating / Plant response rating, Oilseed Rape: scale 0 to 100 (0 no effect, 100 complete control)
Outline: as §1

johnsongrass = test: Test C postemergence; assay type: in vivo, Sorghum halepense; details: for Plant response rating (0 to 100), Johnsongrass: 16 g ai/ha, 0 is no effect, 100 is complete control; for Johnsongrass plant response rating: 31 g ai/ha; for Johnsongrass plant response rating / Plant response rating, Johnsongrass: scale 0 to 100 (0 no effect, 100 complete control)
Outline: as §1

sedge, umbrella = test: Test B flooded paddy test; assay type: in vivo, Cyperus difformis; details: Flood, 250 g ai/ha; 0 to 100 scale where 0 is no effect and 100 is complete control
Outline: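 Flooded to 3 cm at the 2-leaf stage, pots received compound through the paddy water and were kept at that depth under greenhouse conditions. After 13–15 days, effect was rated by eye relative to controls, 0 = none and 100 = complete control.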

wheat [1] = test: Test A postemergence; assay type: in vivo, Triticum aestivum
Outline: (§2)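 Scoring: eye-based comparison with untreated controls, 0 for no effect through 100 for complete control, at about day 10. Treatments: directed soil spray preemergence; foliar spray postemergence on 2–10 cm plants at the one- to two-leaf stage. Medium: loam soil with sand.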

barnyardgrass [2] = test: Test A preemergence; assay type: in vivo, Echinochloa crus-galli
Outline: as §2

wheat [3] = test: Test A preemergence; assay type: in vivo, Triticum aestivum
Outline: as §2

kochia = test: Test C postemergence; assay type: in vivo, Kochia scoparia; details: for Plant response rating (0 to 100), Kochia: 16 g ai/ha, 0 is no effect, 100 is complete control; for Kochia plant response rating: 31 g ai/ha; for Kochia plant response rating / Plant response rating, Kochia: scale 0 to 100 (0 no effect, 100 complete control)
Outline: as §1

barnyardgrass [4] = test: Test C postemergence; assay type: in vivo, Echinochloa crus-galli; details: for Plant response rating (0 to 100), Barnyardgrass: 16 g ai/ha, 0 is no effect, 100 is complete control; for Barnyardgrass plant response rating: 31 g ai/ha, 13 to 15 days; for Barnyardgrass plant response rating / Plant response rating, Barnyardgrass: scale 0 to 100 (0 no effect, 100 complete control)
Outline: as §1

morningglory [5] = test: Test A postemergence; assay type: in vivo, Ipomoea spp.
Outline: as §2

blackgrass = test: Test C postemergence; assay type: in vivo, Alopecurus myosuroides; details: for Plant response rating (0 to 100), Blackgrass: 16 g ai/ha, 0 is no effect, 100 is complete control; for Blackgrass plant response rating: 31 g ai/ha; for Blackgrass plant response rating / Plant response rating, Blackgrass: scale 0 to 100 (0 no effect, 100 complete control)
Outline: as §1

corn = test: Test A preemergence; assay type: in vivo, Zea mays
Outline: as §2

large (Lg) crabgrass = test: Test C postemergence; assay type: in vivo, Digitaria sanguinalis; details: for Plant response rating (0 to 100), Crabgrass, Large: 16 g ai/ha, 0 is no effect, 100 is complete control; for Crabgrass, Large plant response rating: 31 g ai/ha; for Crabgrass, Large plant response rating / Plant response rating, Crabgrass, Large: scale 0 to 100 (0 no effect, 100 complete control)
Outline: as §1

morningglory [6] = test: Test A preemergence; assay type: in vivo, Ipomoea spp.
Outline: as §2

morningglory [7] = test: Test C postemergence; assay type: in vivo, Ipomoea coccinea; details: for Plant response rating (0 to 100), Morningglory: 16 g ai/ha, 0 is no effect, 100 is complete control; for Morningglory plant response rating: 31 g ai/ha; for Morningglory plant response rating / Plant response rating, Morningglory: scale 0 to 100 (0 no effect, 100 complete control)
Outline: as §1

[8] = postemergence, visual rating, 13 to 15 days
[9] = 125 g ai/ha, postemergence, visual rating
[10] = Postemergence, 62 g ai/ha, 13 to 15 days
[11] = 1000 g ai/ha, 0 to 100 scale, 0 no effect, 100 complete control
[12] = 1000 g ai/ha, 0 to 100 scale, 0 no effect, 100 complete control, approx. 10 days
[13] = 125 g ai/ha, 0 to 100 scale where 0 is no effect and 100 is complete control
[14] = 500 g ai/ha, 0 to 100 scale where 0 is no effect and 100 is complete control

Clc1cnc(Oc2ccccc2-n2cc(Br)nn2)nc1 [Compound 223]
Plant response rating (0 to 100), Nutsedge, Yellow (yellow nutsedge; postemergence): 5
Nutsedge, Yellow plant response rating (yellow nutsedge; [8]): 5
Plant response rating, Nutsedge, Yellow (yellow nutsedge; [9]): 5
Plant response rating, Nutsedge, Yellow (yellow nutsedge; [10]): 5
Plant response rating (0 to 100), Oilseed Rape (oilseed rape; postemergence): 10
Oilseed Rape plant response rating (oilseed rape; [8]): 50
Plant response rating, Oilseed Rape (oilseed rape; [9]): 85
Plant response rating, Oilseed Rape (oilseed rape; [10]): 80
Plant response rating (0 to 100), Johnsongrass (johnsongrass; postemergence): 0
Johnsongrass plant response rating (johnsongrass; [8]): 0
Plant response rating, Johnsongrass (johnsongrass; [9]): 5
Plant response rating, Johnsongrass (johnsongrass; [10]): 0
Plant response rating, Sedge, Umbrella (sedge, umbrella): 85
Plant response rating, Wheat (wheat [1]; [11]): 70
Barnyardgrass plant response rating (barnyardgrass [2]; [12]): 100
Wheat plant response rating (wheat [3]; [12]): 80
Plant response rating (0 to 100), Kochia (kochia; postemergence): 70
Kochia plant response rating (kochia; [8]): 85
Plant response rating, Kochia (kochia; [9]): 90
Plant response rating, Kochia (kochia; [10]): 80
Plant response rating (0 to 100), Barnyardgrass (barnyardgrass [4]; postemergence): 0
Barnyardgrass plant response rating (barnyardgrass [4]; postemergence, visual rating): 0
Plant response rating, Barnyardgrass (barnyardgrass [4]; [9]): 5
Plant response rating, Barnyardgrass (barnyardgrass [4]; Postemergence, 62 g ai/ha): 5
Plant response rating, Morningglory (morningglory [5]; [11]): 100
Plant response rating (0 to 100), Blackgrass (blackgrass; postemergence): 0
Blackgrass plant response rating (blackgrass; [8]): 30
Plant response rating, Blackgrass (blackgrass; [9]): 0
Plant response rating, Blackgrass (blackgrass; [10]): 5
Corn plant response rating (corn; [12]): 80
Plant response rating (0 to 100), Crabgrass, Large (large (Lg) crabgrass; postemergence): 5
Crabgrass, Large plant response rating (large (Lg) crabgrass; [8]): 5
Plant response rating, Crabgrass, Large (large (Lg) crabgrass; [9]): 5
Plant response rating, Crabgrass, Large (large (Lg) crabgrass; [10]): 5
Morningglory plant response rating (morningglory [6]; [12]): 100
Plant response rating (0 to 100), Morningglory (morningglory [7]; postemergence): 5
Morningglory plant response rating (morningglory [7]; [8]): 45
Plant response rating, Morningglory (morningglory [7]; [9]): 80
Plant response rating, Morningglory (morningglory [7]; [10]): 70

Fc1cnc(Oc2ccccc2-n2cc(C(F)F)cn2)nc1 [Compound 228]
Plant response rating (0 to 100), Nutsedge, Yellow (yellow nutsedge; postemergence): 0
Nutsedge, Yellow plant response rating (yellow nutsedge; [8]): 0
Plant response rating, Nutsedge, Yellow (yellow nutsedge; [9]): 5
Plant response rating, Nutsedge, Yellow (yellow nutsedge; [10]): 5
Plant response rating (0 to 100), Oilseed Rape (oilseed rape; postemergence): 40
Oilseed Rape plant response rating (oilseed rape; [8]): 60
Plant response rating, Oilseed Rape (oilseed rape; [9]): 85
Plant response rating, Oilseed Rape (oilseed rape; [10]): 60
Plant response rating (0 to 100), Johnsongrass (johnsongrass; postemergence): 5
Johnsongrass plant response rating (johnsongrass; [8]): 0
Plant response rating, Johnsongrass (johnsongrass; [9]): 10
Plant response rating, Johnsongrass (johnsongrass; [10]): 5
Plant response rating, Sedge, Umbrella (sedge, umbrella): 60
Wheat plant response rating (wheat [1]; [13]): 0
Plant response rating, Wheat (wheat [1]; [14]): 70
Barnyardgrass plant response rating (0 to 100 scale, 0 is no effect, 100 is complete control) (barnyardgrass [2]; 125 g ai/ha): 20
Barnyardgrass plant response rating (barnyardgrass [2]; [14]): 100
Wheat plant response rating (0 to 100 scale) (wheat [3]; 125 g ai/ha): 0
Wheat plant response rating (wheat [3]; [14]): 0
Plant response rating (0 to 100), Kochia (kochia; postemergence): 30
Kochia plant response rating (kochia; [8]): 60
Plant response rating, Kochia (kochia; [9]): 85
Plant response rating, Kochia (kochia; [10]): 80
Plant response rating (0 to 100), Barnyardgrass (barnyardgrass [4]; postemergence): 0
Barnyardgrass plant response rating (barnyardgrass [4]; postemergence, visual rating): 0
Plant response rating, Barnyardgrass (barnyardgrass [4]; [9]): 5
Plant response rating, Barnyardgrass (barnyardgrass [4]; Postemergence, 62 g ai/ha): 5
Morningglory plant response rating (morningglory [5]; [13]): 80
Plant response rating, Morningglory (morningglory [5]; [14]): 100
Plant response rating (0 to 100), Blackgrass (blackgrass; postemergence): 0
Blackgrass plant response rating (blackgrass; [8]): 0
Plant response rating, Blackgrass (blackgrass; [9]): 40
Plant response rating, Blackgrass (blackgrass; [10]): 0
Corn plant response rating (0 to 100 scale) (corn; 125 g ai/ha): 0
Corn plant response rating (corn; [14]): 40
Plant response rating (0 to 100), Crabgrass, Large (large (Lg) crabgrass; postemergence): 0
Crabgrass, Large plant response rating (large (Lg) crabgrass; [8]): 5
Plant response rating, Crabgrass, Large (large (Lg) crabgrass; [9]): 5
Plant response rating, Crabgrass, Large (large (Lg) crabgrass; [10]): 5
Morningglory plant response rating (0 to 100 scale) (morningglory [6]; 125 g ai/ha): 10
Morningglory plant response rating (morningglory [6]; [14]): 80
Plant response rating (0 to 100), Morningglory (morningglory [7]; postemergence): 5
Morningglory plant response rating (morningglory [7]; [8]): 10
Plant response rating, Morningglory (morningglory [7]; [9]): 35
Plant response rating, Morningglory (morningglory [7]; [10]): 25
